{
  "source": "patent US20050063931A1",
  "about": "“Hair-follicle treatment,in particular against hair loss” (priority 2001, published 2005)",
  "key": {"[1]": {"test_system": "keratinocytes in the hair follicle", "experiment": "Proliferation of keratinocytes in the hair follicle, positive Ki67 cells (immunohistochemical)", "assay_type": "in vivo, mice of the strain CBA/J", "details": "no stress + SP", "description": "(§1) The tests were carried out in vivo on mice of the strain CBA/J which were pregnant since, as is known, there is a close correlation between exposure to stress and an increase in the percentage of abortions. In order to determine the effect of stress on hair growth, the following biological and immunological parameters were measured: • the number of cells in apoptosis in the hair follicle, • the proliferation of keratinocytes in the hair follicle, • the activity of some immunocytes, in particular, of macrophages, mast cells, and γδT cells. In accordance with a well-established model for the study of stress, some mice were subjected to predetermined doses of ultrasound (sonic stress) for 7 days, to ascertain its impact both on the activity of the hair follicle and on the immune response of the perifollicular region. Another group of mice was subjected to treatment with substance P (SP), and yet others to sonic stress treatment combined with the administration of a NK1-receptor antagonist substance (indicated SP-RA). Upon completion of the above-mentioned treatments, the parameters listed above were measured again and compared with those measured in mice which had not been subjected to any treatment. The proliferation of the keratinocytes was measured by an immunohistochemical technique by measurement of the positive Ki67 cells (column 5)."}, "[2]": {"experiment": "Abortions in pregnant mice (sonic stress model)", "assay_type": "in vivo, mice of the strain CBA/J", "details": "no stress + SP, pregnant CBA/J mice", "description": "The tests were carried out in vivo on mice of the strain CBA/J which were pregnant since, as is known, there is a close correlation between exposure to stress and an increase in the percentage of abortions. In accordance with a well-established model for the study of stress, some mice were subjected to predetermined doses of ultrasound (sonic stress) for 7 days, to ascertain its impact both on the activity of the hair follicle and on the immune response of the perifollicular region. Another group of mice was subjected to treatment with substance P (SP), and yet others to sonic stress treatment combined with the administration of a NK1-receptor antagonist substance (indicated SP-RA). Upon completion of the above-mentioned treatments, the parameters listed above were measured again and compared with those measured in mice which had not been subjected to any treatment."}, "hair follicle [3]": {"test_system": "hair follicle", "experiment": "Cells in apoptosis in the hair follicle by TUNEL technique", "assay_type": "in vivo, mice of the strain CBA/J", "details": "no stress + SP", "description": "The tests were carried out in vivo on mice of the strain CBA/J which were pregnant since, as is known, there is a close correlation between exposure to stress and an increase in the percentage of abortions. In order to determine the effect of stress on hair growth, the following biological and immunological parameters were measured: • the number of cells in apoptosis in the hair follicle, • the proliferation of keratinocytes in the hair follicle, • the activity of some immunocytes, in particular, of macrophages, mast cells, and γδT cells. In accordance with a well-established model for the study of stress, some mice were subjected to predetermined doses of ultrasound (sonic stress) for 7 days, to ascertain its impact both on the activity of the hair follicle and on the immune response of the perifollicular region. […] Upon completion of the above-mentioned treatments, the parameters listed above were measured again and compared with those measured in mice which had not been subjected to any treatment. The number of cells in apoptosis was measured by the TUNEL technique in a first region of the hair follicle comprising the infundibulum, the capsular germinal region, and the secondary germinal region (column 3), and in a second, more extensive region comprising, in addition to the first region, the epidermis and the parafollicular dermis (column 4)."}, "hair follicle [4]": {"test_system": "hair follicle", "details": "treatment during telogen stage; cited from earlier work"}, "γδT cells": {"test_system": "γδT cells", "experiment": "γδT-cell presence (immunohistochemical)", "assay_type": "in vivo, mice of the strain CBA/J", "details": "no stress + SP", "description": "as §1, with “treatment. γδT-cell presence” for “treatment. The proliferation of the keratinocytes”, “was detected” for “was measured”, “technique” for “technique by measurement of the positive Ki67 cells”, “(column 8).” for “(column 5).”"}, "mast cells": {"test_system": "mast cells", "experiment": "Mast-cell activity, degranulated mast cells", "assay_type": "in vivo, mice of the strain CBA/J", "details": "no stress + SP", "description": "The tests were carried out in vivo on mice of the strain CBA/J which were pregnant since, as is known, there is a close correlation between exposure to stress and an increase in the percentage of abortions. In order to determine the effect of stress on hair growth, the following biological and immunological parameters were measured: • the number of cells in apoptosis in the hair follicle, • the proliferation of keratinocytes in the hair follicle, • the activity of some immunocytes, in particular, of macrophages, mast cells, and γδT cells. In accordance with a well-established model for the study of stress, some mice were subjected to predetermined doses of ultrasound (sonic stress) for 7 days, to ascertain its impact both on the activity of the hair follicle and on the immune response of the perifollicular region. Another group of mice was subjected to treatment with substance P (SP), and yet others to sonic stress treatment combined with the administration of a NK1-receptor antagonist substance (indicated SP-RA). Upon completion of the above-mentioned treatments, the parameters listed above were measured again and compared with those measured in mice which had not been subjected to any treatment. Mast-cell activity was measured by measuring the percentage of degranulated mast cells relative to the total mast cells present in the field of vision (column 7)."}, "hair follicle [5]": {"test_system": "hair follicle", "experiment": "Extent of progress of the hair cycle (HCS) 16 days after epilation, FIG. 1", "assay_type": "in vivo, mice", "details": "group C, substance P, no stress", "from_the_text": "The extent of progress of the cycle in this case was an index of the rate at which the hair follicle progresses from the anagen to the catagen.\nWith reference to the histogram of FIG. 1, appended to the present description: • the first group of mice (A) underwent no treatment, • the second group (B) was subjected to sonic stress, • the third group (C) was subjected to treatment with substance P, • the fourth group (D) was subjected to treatment with an NK1-receptor antagonist substance, and • the fifth group (E) was subjected to combined stress and NK1-receptor antagonist substance treatment."}, "[6]": {"test_system": "perifollicular macrophages", "experiment": "Macrophage presence by expression of Class II MHC glycoprotein", "assay_type": "in vivo, mice of the strain CBA/J", "details": "no stress + SP", "description": "as §1, with “Macrophage presence was investigated by detection” for “The proliferation”, “expression” for “keratinocytes was measured by an immunohistochemical technique by measurement”, “Class II MHC glycoprotein” for “the positive Ki67 cells”, “6).” for “5).”"}},
  "data": [
    {"substance": "Substance P [SP]", "values": [
      {"measurement": "Ki67+ cells (proliferation of keratinocytes)", "setting": "[1]", "value": 7.7},
      {"measurement": "% Abortions", "setting": "[2]", "value": 19, "unit": "%"},
      {"measurement": "TUNEL+ cells in apoptosis, first region of the hair follicle (infundibulum, capsular germinal region, secondary germinal region)", "setting": "hair follicle [3]", "value": 8.0},
      {"measurement": "TUNEL+ cells in apoptosis, second more extensive region (first region plus epidermis and parafollicular dermis)", "setting": "hair follicle [3]", "value": 9.0},
      {"measurement": "Effect on hair follicle treated during the telogen stage", "setting": "hair follicle [4]", "value": "induced to go on to the subsequent anagen stage"},
      {"measurement": "γδ TCR+ (γδT-cell presence)", "setting": "γδT cells", "value": 1.3},
      {"measurement": "MC (percentage of degranulated mast cells relative to total mast cells in the field of vision)", "setting": "mast cells", "value": 7.9},
      {"measurement": "Extent of progress of the cycle (HCS): premature catagen", "setting": "hair follicle [5]", "value": "an effect also well simulated by substance P"},
      {"measurement": "MHC II (macrophage presence)", "setting": "[6]", "value": 11.0}
    ]}
  ]
}
